The record followed here is EP0421419A2, “Tocotrienols in the treatment of hypercholesterolemia, hyperlipidemia and thromboembolic disorders” (Bristol-Myers Squibb Company, priority 1989, dated 1991).

For experiment [1], the system named is Cholesterol Synthesis in Isolated Rat Hepatocytes. Put plainly: Rat hepatocyte cholesterol biosynthesis model (14C-acetate incorporation into digitonin-precipitable sterols). Type of experiment: cell-based. Conditions: for inhibition at 125 µg/mL / inhibition at 250 µg/mL / inhibition at 500 µg/mL / IC50: Rattus norvegicus, Hepatocyte, 45 min preincubation, 30 min incorporation. Here is the method: Primary rat parenchymal hepatocytes were prepared from male Wistar rats (180-220 g) at mid-dark in the diurnal cycle by standard collagenase perfusion method as described previously. Ingebritsen et al. J. Biol. Chem., 254: 9986-9989, (1979). Aliquots of cells were suspended (100 mg in 2 ml) in Eagle's minimum essential medium (MEM) supplemented with 2% bovine albumin, and preincubated in a shaking water bath at about 37° under 95% O₂/5% CO₂ with compounds added as given in the data. […] Following a preincubation of about 15 to about 45 minutes as indicated, cholesterol synthesis in intact cells was assayed by 2-14C-acetate (1.8 mCi/mmol, 0.5 µCi/ml) incorporation for about 30 to about 60 minutes (previously shown to be time-linear) into total digitonin-precipitable sterols. […] Percent inhibition was calculated from the average of duplicates vs. triplicate vehicle controls conducted simultaneously.
The primary rat hepatocyte assay for cholesterol bio-synthesis inhibition was conducted as described in Example 2 except the preincubation was about 45 minutes and the 14C-acetate incorporation was about 30 minutes. The indicated compounds were purified from the same natural product source as the mixture used in Example 2. […] Two-component mixtures of the constituents separated from the tocotrienol mixture were tested under the conditions indentical to Table 2A.

The next experiment deals with HMG-CoA reductase. Put plainly: HMG-CoA reductase specific activity in chickens fed compound in diet. Conditions: 20 ppm in corn control diet, 4 weeks; for HMG-CoA Reductase Specific Acticity: 6-week old male chickens, control 1086.9(±114.0). It counts as in vivo. The procedure: Natural gamma-tocotrienol and delta-tocotrienol were evaluated for their hypocholesterolemic action in normocholesterolemic chickens and genetically hypercholesterolemic swine. Newborn male chicks (10 for each group) were raised on a standard corn-soybean-based control diet for two weeks and then were switched to either control or experimental diets for four weeks. Drug treatment consisted of the addition of gamma-tocotrienol or delta-tocotrienol to the corn-soybean-based diet at a concentration of 20 ppm. At the end of the feeding period, all the birds were fasted (about 36 hours) and refed (about 48 hours) to induce cholesterolgenic emzymes prior to sacrifice. The specific activity of HMG-CoA reductase, total serum cholesterol levels, HDL/LDL cholesterol pools, and serum triglyceride levels were examined (Table 5).

Values after ≈ are worked out from the molar mass of the structure shown. Like-named read-outs stand apart in the source and are kept apart here.

As to `CC(C)=CCC/C(C)=C/CC/C(C)=C/CC[C@]1(C)CCc2cc(O)c(C)c(C)c2O1` [d-γ-tocotrienol], in experiment [1] (read-out: % Inhibition at µg/ml conc: 125, 125 µg/ml, Expt. # 2), the inhibition at 125 µg/mL was found to be 28%. The inhibition at 250 µg/mL in experiment [1] (read-out: % Inhibition at µg/ml conc: 250, 250 µg/ml, Expt. # 1) was 48%; in experiment [1] (read-out: % Inhibition at µg/ml conc: 250, 250 µg/ml, Expt. # 2), 34%. For the same molecule, the inhibition at 500 µg/mL in experiment [1] (read-out: % Inhibition at µg/ml conc: 500, 500 µg/ml, Expt. # 1) was determined as 60%; in experiment [1] (read-out: % Inhibition at µg/ml conc: 500, 500 µg/ml, Expt. # 2), 61%. Also, the IC50 in experiment [1] (read-out: IC₅₀, Expt. # 1) came out at 270 µg/mL (≈ 658 µM); in experiment [1] (read-out: IC₅₀, Expt. # 2), 360 µg/mL (≈ 877 µM). Also, the “HMG-CoA Reductase Specific Acticity [% of Control]” value in the experiment with HMG-CoA reductase was found to be 45.5%. In addition, the “HMG-CoA Reductase Specific Acticity” value with HMG-CoA reductase was 494.2(±22.9).
Turning to `CC(C)=CCC/C(C)=C/CC/C(C)=C/CC[C@]1(C)CCc2cc(O)cc(C)c2O1` [d-δ-tocotrienol], the inhibition at 125 µg/mL in experiment [1] (125 µg/ml, Expt. # 2, read-out: % Inhibition at µg/ml conc: 125) came out at 26%. In addition, the inhibition at 250 µg/mL in experiment [1] (250 µg/ml, Expt. # 1, read-out: % Inhibition at µg/ml conc: 250) was determined as 49%; in experiment [1] (250 µg/ml, Expt. # 2, read-out: % Inhibition at µg/ml conc: 250), 33%. Moreover, the inhibition at 500 µg/mL in experiment [1] (500 µg/ml, Expt. # 1, read-out: % Inhibition at µg/ml conc: 500) stood at 62%; in experiment [1] (500 µg/ml, Expt. # 2, read-out: % Inhibition at µg/ml conc: 500) it was 63%. Besides, the IC50 is 260 µg/mL (≈ 656 µM) in experiment [1] (Expt. # 1, read-out: IC₅₀) and 340 µg/mL (≈ 857 µM) in experiment [1] (Expt. # 2, read-out: IC₅₀). Also, the “times more active than alpha-tocotrienol” value in experiment [1] (rat and chicken hepatocyte system) is on record as “at least 5 times”. The “HMG-CoA Reductase Specific Acticity [% of Control]” value in the experiment with HMG-CoA reductase was determined as 50.6%. Moreover, in the experiment with HMG-CoA reductase, the “HMG-CoA Reductase Specific Acticity” value is listed as 550.2(±33.8).
